Data reported in ChEMBL document CHEMBL3217599, “Selective antitumour activity and ER molecular docking studies of newly synthesizedd-homo fused steroidal tetrazoles” (Medchemcomm, 2013).

Experiments:
MRC5 = test: Cytotoxicity against human MRC5 cells expressing estrogen receptor after 48 hrs by MTT assay; type: cell-based; settings: MRC5, 48 h
PC-3 [1] = test: Cytotoxicity against human PC3 cells expressing estrogen receptor after 48 hrs by MTT assay; type: functional, cell-based; settings: PC-3, 48 h
HT-29 = test: Cytotoxicity against human HT-29 cells expressing estrogen receptor after 48 hrs by MTT assay; type: functional, cell-based; settings: HT-29, 48 h
MCF7 = test: Cytotoxicity against human MCF7 cells expressing estrogen receptor after 48 hrs by MTT assay; type: functional, cell-based; settings: MCF7, 48 h
MDA-MB-231 = test: Cytotoxicity against estrogen receptor-deficient human MDA-MB-231 cells after 48 hrs by MTT assay; type: functional, cell-based; settings: MDA-MB-231, 48 h
HeLa = test: Cytotoxicity against human HeLa cells expressing estrogen receptor after 48 hrs by MTT assay; type: functional, cell-based
K562 = test: Cytotoxicity against human K562 cells expressing estrogen receptor after 48 hrs by MTT assay; type: functional, cell-based; settings: K562, 48 h
PC-3 [2] = test: Ratio of doxorubicin IC50 to compound IC50 for human PC3 cells expressing estrogen receptor after 48 hrs by MTT assay; type: functional

C[C@]12CC[C@@H]3c4ccc(OCc5ccccc5)cc4CC[C@H]3[C@@H]1Cc1nnnn1C2
IC50 (MRC5): > 100 µM
IC50 (PC-3 [1]): 65.5 µM
IC50 (HT-29): > 100 µM
IC50 (MCF7): 12.6 µM
IC50 (MDA-MB-231): > 100 µM
IC50 (HeLa): > 100 µM
IC50 (K562): > 100 µM

CC(=O)O[C@H]1CC[C@@]2(C)C(=CC[C@H]3[C@@H]4Cc5nnnn5[C@H](C)[C@@]4(C)CC[C@@H]32)C1
IC50 (MRC5): > 100 µM
Ratio IC50 (PC-3 [2]): >6
IC50 (PC-3 [1]): 15.3 µM
IC50 (HT-29): > 100 µM
IC50 (MCF7): 25.4 µM
IC50 (MDA-MB-231): 89.6 µM
IC50 (HeLa): > 100 µM
IC50 (K562): 11.1 µM

COc1cccc2c1C(=O)c1c(O)c3c(c(O)c1C2=O)C[C@@](O)(C(=O)CO)C[C@@H]3O[C@H]1C[C@H](N)[C@H](O)[C@H](C)O1 [DOXORUBICIN]
IC50 (HT-29): 0.32 µM
IC50 (MCF7): 0.75 µM
IC50 (K562): 0.36 µM

C[C@H]1n2nnnc2C[C@H]2[C@@H]3CCc4cc(OCc5ccccc5)ccc4[C@H]3CC[C@@]21C
IC50 (MRC5): > 100 µM
IC50 (PC-3 [1]): > 100 µM
IC50 (HT-29): 18 µM
IC50 (MCF7): 4.58 µM
IC50 (MDA-MB-231): > 100 µM
IC50 (HeLa): > 100 µM
IC50 (K562): > 100 µM

CC(=O)O[C@H]1CC[C@@]2(C)C(=CC[C@H]3[C@@H]4Cc5nnnn5C[C@@]4(C)CC[C@@H]32)C1
IC50 (MRC5): > 100 µM
IC50 (PC-3 [1]): 79 µM
IC50 (HT-29): > 100 µM
IC50 (MCF7): 56.2 µM
IC50 (MDA-MB-231): > 100 µM
IC50 (HeLa): > 100 µM
IC50 (K562): 45.2 µM
